Reference: article PMC3253915 (Molecular Genetics and Metabolism, 2011)

Biological target: human GALK (Homo sapiens, UniProt P51570)
Test: GALK inhibition in vitro
Format: biochemical
Conditions: unpublished data

Sequence of human GALK (P51570 whole entry): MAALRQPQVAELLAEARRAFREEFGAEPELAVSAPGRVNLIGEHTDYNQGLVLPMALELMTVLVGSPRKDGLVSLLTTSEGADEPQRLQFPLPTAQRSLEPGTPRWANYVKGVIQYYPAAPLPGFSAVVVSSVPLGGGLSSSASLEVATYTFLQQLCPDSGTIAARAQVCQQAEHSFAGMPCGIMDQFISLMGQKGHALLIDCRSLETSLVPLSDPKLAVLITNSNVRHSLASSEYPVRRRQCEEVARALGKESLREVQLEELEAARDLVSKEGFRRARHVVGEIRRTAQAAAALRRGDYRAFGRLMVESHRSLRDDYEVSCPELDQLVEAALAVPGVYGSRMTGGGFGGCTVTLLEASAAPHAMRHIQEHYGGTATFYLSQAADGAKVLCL

Structure (SMILES) | GALK inhibition (galactose derivative) | GALK inhibition (at low millimolar (mM) range)
O=CC[C@@H](O)[C@@H](O)[C@H](O)CO [2-deoxygalactose] | did not result in GALK inhibition | –
OC[C@H]1OC(O)[C@H](O)[C@@H](O)[C@@H]1O (stereo partly drawn) [glucose] | – | no inhibition
O=C(CO)[C@@H](O)[C@H](O)[C@H](O)CO [fructose] | – | no inhibition
